The text below walks through data of publication PMC6072100, “Exploring the links between peptoid antibacterial activity and toxicity” (MedChemComm, 2017).

Square brackets hold non-standard residues; d marks the D form. Peptide text beside a SMILES is read from it. Nspe = C[C@H](NCC(=O)O)c1ccccc1; NhArg = N=C(N)NCCCCNCC(=O)O; NPentylGly = CCCCCNCC(=O)O

Data set [1] in a line: Cytotoxicity assay with HepG2 (alamarBlue). The data set is classed as cell-based, human. To be noted: human, HepG2 cells. Here is the method:
The activity of our peptoid library was assessed against both bacterial and mammalian cells to gain a broader understanding of the factors that lead to effective and selective antimicrobial peptoids. We screened for broad-spectrum antibacterial activity against Gram-negative (Escherichia coli and Pseudomonas aeruginosa) and Gram-positive (Staphylococcus aureus and S. epidermidis) bacteria. The toxicity of the library was also assessed against two mammalian cell lines; HaCaT spontaneously transformed aneuploid keratinocytes were employed to model toxicity against human skin cells and HepG2, a cell line derived from a human liver carcinoma, were used as a study on polarised human hepatocytes. Detailed methods for these assays can be found in the ESI. ^‡ […]
Please note – ED50, the median effective dose, was defined as the dose that kills 50% of cells.
Cytotoxicity analyses were performed in 96-well plates (Costar, Fisher Scientific) using alamarBlue® (Invitrogen) for cell viability detection using a modified protocol as described previously. HepG2 or HaCaT cells were subcultured at 37 °C, 5% CO2 in DMEM high glucose supplemented with heat-inactivated foetal bovine sera (FBS, 10%; Biosera Ltd) and penicillin/streptomycin (P/S, 1%). Cells were counted using a Neubauer Improved Haemocytometer. HepG2 cells were seeded 1 day prior to treatment in 96 well plates at a concentration of 2 × 10^5 cells per mL in 100 μL of medium (2 × 10^4 cells per well). Then cells were pre-incubated with the compounds in triplicate in a dilution series in triplicate from 2–100 μM (5 mM stock solutions in DMSO diluted from 100 μM to 3 μM; untreated cells with DMSO as a negative control) in 50 μl of the media for 1 hour. Afterwards, 40 μL were removed from each well before the addition of 90 μL of the media, followed by incubation for 24 hours at 37 °C, 5% CO2. Then, 10 μL of alamarBlue® (Invitrogen) was added to each well before a 2 hour incubation prior to assessing cell viability using a fluorescent plate reader (Biotek; Ex 560 nm/Em 600 nm). All data were measured in triplicate on a minimum of two occasions to ensure a robust data set was collected. The ED50 values were calculated from the dose response results achieved from the serial dilutions.
Cytotoxicity assay with HepG2
Cytotoxicity analyses were performed in 96-well plates (Costar, Fisher Scientific) using alamarBlue® (Invitrogen) for cell viability detection using a modified protocol as previously described. The HepG2 cells were grown at 37 °C, 5% CO2 in DMEM high glucose supplemented with heat-inactivated foetal bovine sera (FBS, 10%; Biosera Ltd) and penicillin/streptomycin (P/S, 1%). Cells were counted using a Neubauer Improved Haemocytometer. HepG2 cells were seeded 1 day prior to treatment in 96 well plates at a concentration of 2x10^5 cells/mL in 100 µL of medium (2x10^4 cells/well). Then cells were pre-incubated with the compounds in triplicate (5 mM stock solutions in DMSO diluted from 100 µM to 3 µM; untreated cells with DMSO as a negative control) in 50 µl of the media for 1 hour.
Afterwards, 40 µL were removed from each well before the addition of 90 µL of the media, followed by incubation for 24 hours at 37 °C, 5% CO2. Then, 10 µL of alamarBlue® (Invitrogen) was added to each well before a 2 hour incubation prior to assessing cell viability using a fluorescent plate reader (Biotek; Ex 560 nm / Em 600 nm). All data was measured in triplicate on a minimum of two occasions to ensure a robust data set was collected. The ED50 values were calculated from the dose response results achieved from the serial dilutions. […]
5% CO2 in DMEM high glucose supplemented with heat-inactivated foetal bovine sera (FBS, 10%; Biosera Ltd) and penicillin/streptomycin (P/S, 1%). Cells were counted using a Neubauer […]
Empty wells were filled with 100 µL PBS. After 24 hours, cells were incubated with the compounds in a dilution series in triplicate from 2 – 100 µM (5 mM stock solutions in DMSO […]

Data set [2] can be described thus: Skin cell toxicity assay with HaCaT (alamarBlue). The data set is classed as cell-based, human. To be noted: human, HaCaT cells (keratinocytes). An outline of the steps: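 HaCaT cells seeded at 2x10^4 per well 24 hours before 1-hour exposure to a 2–100 µM triplicate dilution series in DMEM high glucose with 10% FBS at 37 °C, 5% CO2. Viability assessed with alamarBlue; ED50 defined as dose killing 50% of cells, derived from dose-response data.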

Where [3] appears, read: dose that kills 50% of cells, 2–100 μM, 1 h with compound then 24 h, alamarBlue, read-out: ED50 HepG2.
Where [4] appears, read: dose that kills 50% of cells, 2–100 μM, 1 h with compound then 24 h, alamarBlue, read-out: ED50 HaCaT.

For the compound `NCCCCNCC(=O)N(CC(=O)N(CC(=O)N(CCCCN)CC(=O)N(CC(=O)N(CC(=O)N(CCCCN)CC(=O)N(CC(=O)N(CC(=O)N(CCCCN)CC(=O)N(CC(=O)N(CC(N)=O)Cc1cccc(F)c1)Cc1cccc(F)c1)Cc1cccc(F)c1)Cc1cccc(F)c1)Cc1cccc(F)c1)Cc1cccc(F)c1)Cc1cccc(F)c1)Cc1cccc(F)c1` [Peptoid 24, (NLysNmfbNmfb)4], the CC50 at 24 h in data set [1] (ED50 HepG2) stood at 17 µM; in data set [2] (ED50 HaCaT) it was 25 µM.

`NCCCCNCC(=O)N(CC(=O)N(CC(=O)N(CCCCN)CC(=O)N(CC(=O)N(CC(=O)N(CCCCN)CC(=O)N(CC(=O)N(CC(N)=O)Cc1cccc(F)c1)Cc1cccc(F)c1)Cc1cccc(F)c1)Cc1cccc(F)c1)Cc1cccc(F)c1)Cc1cccc(F)c1` [Peptoid 25, (NLysNmfbNmfb)3]: the CC50 at 24 h in data set [1] (ED50 HepG2) was 43 µM; in data set [2] (ED50 HaCaT), 64 µM.

On to `C[C@@H](c1ccccc1)N(CC(N)=O)C(=O)CN(Cc1ccc(F)cc1)C(=O)CN(CCCCN)C(=O)CN(C(=O)CN(Cc1ccc(F)cc1)C(=O)CN(CCCCN)C(=O)CN(C(=O)CN(Cc1ccc(F)cc1)C(=O)CN(CCCCN)C(=O)CN(C(=O)CN(Cc1ccc(F)cc1)C(=O)CNCCCCN)[C@@H](C)c1ccccc1)[C@@H](C)c1ccccc1)[C@@H](C)c1ccccc1` [Peptoid 26, (NLysNpfbNspe)4], for which the CC50 at 24 h turned out to be 26 µM in data set [1] (ED50 HepG2) and 20 µM in data set [2] (ED50 HaCaT).

As for `C[C@@H](c1ccccc1)N(CC(N)=O)C(=O)CN(Cc1ccc(F)cc1)C(=O)CN(CCCCN)C(=O)CN(C(=O)CN(Cc1ccc(F)cc1)C(=O)CN(CCCCN)C(=O)CN(C(=O)CN(Cc1ccc(F)cc1)C(=O)CNCCCCN)[C@@H](C)c1ccccc1)[C@@H](C)c1ccccc1` [Peptoid 27, (NLysNpfbNspe)3], the CC50 at 24 h in data set [1] (setting [3]) amounted to 36 µM; in data set [2] (setting [4]), 52 µM.

`C[C@@H](c1ccccc1)N(CC(N)=O)C(=O)CN(C(=O)CN(CCCCN)C(=O)CN(Cc1ccc(F)cc1)C(=O)CN(Cc1ccc(F)cc1)C(=O)CN(CCCCN)C(=O)CN(C(=O)CN(C(=O)CN(CCCCN)C(=O)CN(Cc1ccc(F)cc1)C(=O)CN(Cc1ccc(F)cc1)C(=O)CNCCCCN)[C@@H](C)c1ccccc1)[C@@H](C)c1ccccc1)[C@@H](C)c1ccccc1` [Peptoid 28, [(NLysNpfbNpfb)(NLysNspeNspe)]2]: the values for the CC50 at 24 h in data set [1] (ED50 HepG2) and in data set [2] (ED50 HaCaT) were 55 µM and 100 µM, respectively.

For the compound `C[C@@H](c1ccccc1)N(CC(N)=O)C(=O)CN(C(=O)CN(CCCCN)C(=O)CN(Cc1ccc(F)cc1)C(=O)CN(Cc1ccc(F)cc1)C(=O)CN(CCCCN)C(=O)CN(C(=O)CN(C(=O)CNCCCCN)[C@@H](C)c1ccccc1)[C@@H](C)c1ccccc1)[C@@H](C)c1ccccc1` [Peptoid 29, (NLysNspeNspe)(NLysNpfbNpfb)(NLysNspeNspe)], the CC50 at 24 h worked out at 43 µM in data set [1] (setting [3]) and 65 µM in data set [2] (setting [4]).

Take `CCCCCNCC(=O)N(CC(=O)N(CC(=O)N(CCCCN)CC(=O)N(CC(=O)N(CC(=O)N(CCCCN)CC(=O)N(CC(=O)N(CC(=O)N(CCCCN)CC(=O)N(CC(=O)N(CC(N)=O)[C@@H](C)c1ccccc1)[C@@H](C)c1ccccc1)[C@@H](C)c1ccccc1)[C@@H](C)c1ccccc1)[C@@H](C)c1ccccc1)[C@@H](C)c1ccccc1)[C@@H](C)c1ccccc1)[C@@H](C)c1ccccc1` [Peptoid 30, (NamyNspeNspe)[(NLysNspeNspe)]3]: the results for the CC50 at 24 h in data set [1] (ED50 HepG2) and in data set [2] (ED50 HaCaT) were 15 µM and 12 µM, respectively.

Regarding `CCCCCNCC(=O)N(CC(=O)N(CC(=O)N(CCCCC)CC(=O)N(CC(=O)N(CC(=O)N(CCCCN)CC(=O)N(CC(=O)N(CC(=O)N(CCCCN)CC(=O)N(CC(=O)N(CC(N)=O)[C@@H](C)c1ccccc1)[C@@H](C)c1ccccc1)[C@@H](C)c1ccccc1)[C@@H](C)c1ccccc1)[C@@H](C)c1ccccc1)[C@@H](C)c1ccccc1)[C@@H](C)c1ccccc1)[C@@H](C)c1ccccc1` [Peptoid 31, (NamyNspeNspe)2(NLysNspeNspe)2], the CC50 at 24 h in data set [1] (ED50 HepG2) was 18 µM; in data set [2] (ED50 HaCaT), 20 µM.

Consider `CCCCCN(CC(=O)N(CC(=O)N(CC(=O)N(CCCCN)CC(=O)N(CC(=O)N(CC(N)=O)[C@@H](C)c1ccccc1)[C@@H](C)c1ccccc1)[C@@H](C)c1ccccc1)[C@@H](C)c1ccccc1)C(=O)CN(C(=O)CN(C(=O)CN(CCCCN)C(=O)CN(C(=O)CN(C(=O)CNCCCCN)[C@@H](C)c1ccccc1)[C@@H](C)c1ccccc1)[C@@H](C)c1ccccc1)[C@@H](C)c1ccccc1` [Peptoid 32, (NLysNspeNspe)2(NamyNspeNspe)(NLysNspeNspe)], for which the CC50 at 24 h came out at 22 µM in data set [1] (ED50 HepG2) and 20 µM in data set [2] (ED50 HaCaT).

Turning to `C[C@@H](c1ccccc1)N(CC(N)=O)C(=O)CN(C(=O)CN(CCCCNC(=N)N)C(=O)CN(C(=O)CN(C(=O)CN(CCCCNC(=N)N)C(=O)CN(C(=O)CN(C(=O)CN(CCCCNC(=N)N)C(=O)CN(C(=O)CN(C(=O)CNCCCCNC(=N)N)[C@@H](C)c1ccccc1)[C@@H](C)c1ccccc1)[C@@H](C)c1ccccc1)[C@@H](C)c1ccccc1)[C@@H](C)c1ccccc1)[C@@H](C)c1ccccc1)[C@@H](C)c1ccccc1` [Peptoid 34, (NhArgNspeNspe)4] (H-[NhArg][Nspe][Nspe][NhArg][Nspe][Nspe][NhArg][Nspe][Nspe][NhArg][Nspe][Nspe]-NH2), the CC50 at 24 h in data set [1] (ED50 HepG2) stood at 12 µM; in data set [2] (ED50 HaCaT), 11 µM.

On to `CCCCCNCC(=O)N(CC(=O)N(CC(=O)N(CCCCNC(=N)N)CC(=O)N(CC(=O)N(CC(=O)N(CCCCC)CC(=O)N(CC(=O)N(CC(=O)N(CCCCNC(=N)N)CC(=O)N(CC(=O)N(CC(N)=O)[C@@H](C)c1ccccc1)[C@@H](C)c1ccccc1)[C@@H](C)c1ccccc1)[C@@H](C)c1ccccc1)[C@@H](C)c1ccccc1)[C@@H](C)c1ccccc1)[C@@H](C)c1ccccc1)[C@@H](C)c1ccccc1` [Peptoid 40, [(NamyNspeNspe)(NhArgNspeNspe)]2] (H-[NPentylGly][Nspe][Nspe][NhArg][Nspe][Nspe][NPentylGly][Nspe][Nspe][NhArg][Nspe][Nspe]-NH2), for which the CC50 at 24 h in data set [1] (ED50 HepG2) was determined as 24 µM; in data set [2] (ED50 HaCaT), 31 µM.
